Reference: patent US20080003590A1, “Termination of Binding Parameters” (priority 2004, published 2008)

Tests used:
[1] = target: human serum albumin (HSA) (Homo sapiens, UniProt P02768); test: biochemical
Protocol: 5. Immobilization of Human Serum Albumin (HSA) on Fluorescence-Active Supports (FI-HSA)
For the immobilization of HSA, 100 mg of HSA dissolved in 10 ml of phosphate buffer (20 mM, pH 7.4) are added to 1 g of a support prepared according to 2. and rotated overhead for at least four hours. To remove free protein, this is washed with phosphate buffer, 1M NaCl in phosphate buffer and finally with PBS. The quantification of the protein immobilization is effected by supernatant analysis. The suspension is adjusted to a desired protein concentration in PBS and stored.
For the determination of the albumin binding, 200 mg of the FI-HSA support prepared in 5. were made up to a total volume of 1 ml with PBS, and similarly 200 mg of an FI-Ref prepared according to 3. were made up to 1 ml with PBS.
For the determination of the concentration-dependent quantities, the following volumes were pipetted into the wells of a 384 well UV plate (Greiner UV-plate): […]
whereby the final concentration of carbamazepine in the wells is 70 μM. […] For the determination of the concentration-dependent quantity cpre-binding, excitation spectra of the wells reference 1 and substance 1 are recorded in the “top-read” mode between 250 and 480 nm with an emission wavelength of 530 nm, and calculated from cpre-binding=log F0v(λ)/Fv(λ), where F0v(λ) and Fv(λ) are the excitation spectra of the wells reference 1 and substance 1. […]

[2] = Determination of the membrane affinity of warfarin in the 96-well format (FI-EiPC support, internal filter effect); assay type: physicochemical; details: triple determination, 70 μM warfarin, FI-EiPC support in PBS
Protocol: 4. Reconstitution of Lipid Membranes on Fluorescence-Active Supports (FI-EiPC)
For the reconstitution of lipid membranes, firstly 1 g of a support prepared according to 2. is treated with a solution of 25 mg of sodium polystyrenesulfonate in 25 ml of water in the overhead rotator and then washed three times each with water and PBS.
60 ml of a vesicle solution of 5 mg/ml EiPC (lipid extract from egg yolk) in PBS (prepared by homogenization in the Avestin Co EmulsiFlex-C5 homogenizer) are added to this support and incubated overnight. To remove excess lipid, this is washed three times with PBS and the support is then stored in PBS. The determination of the lipid concentration is effected by drying of defined volumes of suspension, detachment of the lipid from the solid body using an organic solvent, and then HPLC analysis.
Well reference 1: 100 μl FI-Ref suspension+200 μl PBS
Well substance 1: 100 μl FI-Ref suspension+170 μl PBS+30 μl warfarin solution;
Well reference 1′: 100 μl FI-EiPC suspension+200 μl PBS
Well substance 1′: 100 μl FI-EiPC suspension+170 μl PBS+30 μl warfarin solution; whereby the final concentration of warfarin in the wells is 70 μM. […]

Sequence of human serum albumin (HSA) (P02768 25-609): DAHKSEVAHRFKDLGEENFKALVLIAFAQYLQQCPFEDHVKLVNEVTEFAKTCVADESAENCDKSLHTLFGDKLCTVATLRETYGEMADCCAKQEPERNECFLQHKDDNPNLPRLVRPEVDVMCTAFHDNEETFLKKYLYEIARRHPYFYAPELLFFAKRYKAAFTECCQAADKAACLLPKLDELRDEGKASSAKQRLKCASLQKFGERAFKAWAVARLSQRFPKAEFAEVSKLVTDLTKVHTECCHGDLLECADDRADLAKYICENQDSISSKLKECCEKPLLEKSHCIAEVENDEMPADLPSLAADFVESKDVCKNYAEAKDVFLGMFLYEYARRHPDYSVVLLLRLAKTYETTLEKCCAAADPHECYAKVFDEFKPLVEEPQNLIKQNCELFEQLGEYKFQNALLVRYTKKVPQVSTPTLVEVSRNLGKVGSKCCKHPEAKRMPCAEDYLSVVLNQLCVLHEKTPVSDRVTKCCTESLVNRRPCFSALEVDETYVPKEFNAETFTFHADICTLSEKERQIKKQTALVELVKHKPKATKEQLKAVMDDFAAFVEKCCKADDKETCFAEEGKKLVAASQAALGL

Kd [1] [µM] | membrane affinity [2] | Compound
170 | – | NC(=O)N1c2ccccc2C=Cc2ccccc21 [carbamazepine]
– | 1.7±0.3 | CC(=O)CC(c1ccccc1)c1c(O)c2ccccc2oc1=O (centres unmarked) [warfarin]
